Measured values published in US7880006B2, “Quinoline derivatives and insecticide comprising thereof as active ingredient” (Meiji Seika Kaisha, Ltd., priority 2004, dated 2011).

Tests used:
[1] = tested on: Plutella xylostella; experiment: Pesticidal effect against Plutella xylostella (cabbage leaf disk spray); type: in vivo; details: Concentration 200 ppm; method of Test Example 1
From the text: Pesticidal Effect Against Plutella xylostella
(§1) A cabbage leaf disk having a diameter of 5 cm was placed in a plastic cup. Test compounds, which had been diluted to designated concentrations by the addition of a 50% aqueous acetone solution (Tween 20, 0.05%), were spread over the cabbage leaf disk by means of a spray gun, and the cabbage leaf disk was then air dried. Five larvae at the second instar of Plutella xylostella were released in the cup. The cup was then lidded, and the larvae were reared in a chamber at a constant temperature (25° C.).

[2] = tested on: Tetranychus cinnabarinus; experiment: Miticidal effect against Tetranychus cinnabarinus (kidney leaf disk, eggs/larvae/nymphs); type: in vivo; details: Concentration 500 ppm; method of Test Example 4
Method: Miticidal Effect Against Tetranychus cinnabarinus
A kidney leaf disk having a diameter of 2 cm was placed on agar. Seven female adult mites of Tetranychus cinnabarinus were released on the kidney leaf disk. The female adult mites were allowed to oviposit in a chamber kept at a constant temperature (25° C.) for 24 hr. The female adult mites were then removed from the kidney leaf disk. Test compounds, which had been diluted to designated concentrations by the addition of a 50% aqueous acetone solution (Tween 20, 0.05%), were spread over the leaf disk by means of a spray gun, and the leaf disk was then air dried. Thereafter, the leaf disk was stored in a constant-temperature chamber of 25° C. […] The sum of the unhatching rate of eggs and the death rate of larva ticks/nymphs was determined as the total death rate.

[3] = tested on: Laodel phax striatellus; experiment: Control effect against Laodel phax striatellus (rice seedling spray); type: in vivo; details: Concentration 500 ppm; method of Test Example 5
From the text: Control Effect Against Laodel phax striatellus
Test compounds, which had been diluted to designated concentrations by the addition of a 50% aqueous acetone solution (Tween 20, 0.05%), were spread over four rice seedlings (7 days after sowing) sowed in a plastic pot by means of a spray gun, followed by air drying. Thereafter, this pot was covered by a plastic cylinder, and ten larvae at the second instar of Laodel phax striatellus were released in the pot. The pot was then lidded, and the larvae were reared in a chamber at a constant temperature (25° C.).

[4] = tested on: Spodoptera litura; experiment: Pesticidal effect against Spodoptera litura (cabbage leaf disk spray); type: in vivo; details: Concentration 200 ppm; method of Test Example 2
From the text: Pesticidal Effect Against Spodoptera litura
as §1, with “third” for “second”, “Spodoptera litura” for “Plutella xylostella”

[5] = tested on: Myzus persicae; experiment: Pesticidal effect against Myzus persicae (cabbage leaf disk spray); type: in vivo; details: Concentration 500 ppm; method of Test Example 3
From the text: Pesticidal Effect Against Myzus persicae
A cabbage leaf disk having a diameter of 2.8 cm was placed in a plastic schale. Test compounds, which had been diluted to designated concentrations by the addition of a 50% aqueous acetone solution (Tween 20, 0.05%), were spread over the cabbage leaf disk by means of a spray gun, and the cabbage leaf disk was then air dried. Thereafter, ten larvae at the first instar of Myzus persicae were released in the schale. The schale was then lidded, and the larvae were reared in a chamber at a constant temperature (25° C.).

Compound	Death rate, % Plutella xylostella [1] [%]	Death rate, % Tetranychus cinnabarinus [2] [%]	Death rate, % Laodelphax striatellus [3] [%]	Death rate, % Spodoptera litura [4] [%]	Death rate, % Myzus persicae [5] [%]	melting point [°C]
CC(=O)Oc1c(C)c(C)nc2ccc(Oc3ccccc3)cc12 [WO 98055460 Compund No. 136]	0	0	0	0	0	
COc1ccc2nc(C)c(C)c(OC(C)=O)c2c1 [JP 2633377 Compund No. 46]	0	0	0	10	0	
CC(=O)Oc1c(C)c(C)nc2ccc(Oc3ccc(Cl)cc3)c(Cl)c12 [Compound No. 2, 4-Acetoxy-5-chloro-6-(4-chlorophenoxy)-2,3-dimethyl-quinoline]						167 to 169
CC(=O)Oc1c(C)c(C)nc2cc(Cl)c(Oc3ccc(Cl)cc3)cc12 [Compound No. 22, 4-acetoxy-7-chloro-6-(4-chlorophenoxy)-2,3-dimethyl-quinoline]						160 to 162
